Measured values: PubChem BioAssay AID256 (DTP/NCI, 2004)
Values joined by “and” are separate entries in the source; they are usually repeats but may differ in a detail not shown here. Equal entries are not always repeated. Inconclusive results and toxic doses are left out. The calls were made as follows: active = survival T/C of 150% or more; inactive = T/C below 125% in these data.

Test system: CD2F1 mice, L1210 leukemia ip, survival T/C
Assay: NCI In Vivo Anticancer Drug Screen. Data for tumor model L1210 Leukemia (intraperitoneal) in CD2F1 (CDF1) mice
Settings: higher = longer survival
Outline: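 Compound-dosed mice with transplantable tumor versus matched vehicle controls; endpoint ratio T/C reported.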

[1] = endpoint: mean survival time, dose: 100.0 mg/kg/injection, schedule: Q04DX003 (ip), vehicle: saline with Tween-80
[2] = endpoint: mean survival time, dose: 200.0 mg/kg/injection, schedule: Q04DX003 (ip), vehicle: saline with Tween-80
[3] = endpoint: mean survival time, dose: 400.0 mg/kg/injection, schedule: Q04DX003 (ip), vehicle: saline with Tween-80

Measured: T/C

CC1C(C(=O)c2ccccc2)C(c2ccccc2)OP1(c1ccccc1)(c1ccccc1)c1ccccc1 (configuration not stated)
inactive: endpoint: mean survival time, dose: 6.25 mg/kg/injection, schedule: Q01DX001 (ip), vehicle: saline with Tween-80 97 % of control | endpoint: mean survival time, dose: 12.5 mg/kg/injection, schedule: Q01DX001 (ip), vehicle: saline with Tween-80 96 % of control | endpoint: mean survival time, dose: 25.0 mg/kg/injection, schedule: Q01DX001 (ip), vehicle: saline with Tween-80 105 % of control

NC(CS)=NCc1ccccc1
inactive: endpoint: mean survival time, dose: 6.25 mg/kg/injection, schedule: Q04DX002 (ip), vehicle: saline 108 % of control | endpoint: mean survival time, dose: 12.5 mg/kg/injection, schedule: Q04DX002 (ip), vehicle: saline 115 % of control | endpoint: mean survival time, dose: 25.0 mg/kg/injection, schedule: Q04DX002 (ip), vehicle: saline 101 % of control

COc1cc2ccc(/C=C\[N+](=O)[O-])cc2cc1OC
inactive: endpoint: mean survival time, dose: 12.5 mg/kg/injection, schedule: Q01DX009 (ip), vehicle: water 94 % of control | endpoint: mean survival time, dose: 25.0 mg/kg/injection, schedule: Q01DX009 (ip), vehicle: water 102 % of control | endpoint: mean survival time, dose: 50.0 mg/kg/injection, schedule: Q01DX009 (ip), vehicle: water 96 % of control

COc1cccc(N=C(N)N=C(N)N)c1
inactive: endpoint: mean survival time, dose: 100.0 mg/kg/injection, schedule: Q01DX009 (ip), vehicle: saline 95 % of control | endpoint: mean survival time, dose: 200.0 mg/kg/injection, schedule: Q01DX009 (ip), vehicle: saline 90 % of control

Cc1nc(CCCCCCCC(=O)O)ccc1O
inactive: endpoint: mean survival time, dose: 100.0 mg/kg/injection, schedule: Q04DX002 (ip), vehicle: saline 94 % of control | endpoint: mean survival time, dose: 200.0 mg/kg/injection, schedule: Q04DX002 (ip), vehicle: saline 97 % of control | endpoint: mean survival time, dose: 400.0 mg/kg/injection, schedule: Q04DX002 (ip), vehicle: saline 109 % of control

Nc1nc2c(c(=O)[nH]1)N=C(CCc1ccccc1)CO2
inactive: endpoint: mean survival time, dose: 25.0 mg/kg/injection, schedule: Q01DX009 (ip), vehicle: other 91 % of control | endpoint: mean survival time, dose: 50.0 mg/kg/injection, schedule: Q01DX009 (ip), vehicle: other 93 % of control | endpoint: mean survival time, dose: 100.0 mg/kg/injection, schedule: Q01DX009 (ip), vehicle: other 87 % of control | endpoint: mean survival time, dose: 200.0 mg/kg/injection, schedule: Q01DX009 (ip), vehicle: other 87 % of control

O=C1CC(c2ccccc2)CC(=O)O1
inactive: [1] 102 % of control | [2] 100 % of control | [3] 92 % of control

O=C(O)Cc1ccccc1C(=O)O.[NH-]C1CCCCC1[NH-].[Pt+2]
inactive: endpoint: median survival time, dose: 3.12 mg/kg/injection, schedule: Q04DX003 (ip), vehicle: saline 102 % of control and 108 % of control | endpoint: median survival time, dose: 6.25 mg/kg/injection, schedule: Q04DX003 (ip), vehicle: saline 103 % of control and 108 % of control | endpoint: median survival time, dose: 12.5 mg/kg/injection, schedule: Q04DX003 (ip), vehicle: saline 109 % of control and 110 % of control | endpoint: median survival time, dose: 25.0 mg/kg/injection, schedule: Q04DX003 (ip), vehicle: saline 105 % of control and 109 % of control | endpoint: median survival time, dose: 50.0 mg/kg/injection, schedule: Q04DX003 (ip), vehicle: saline 117 % of control and 112 % of control

CC(C)C1=CC23CCC4C(C)(C(=O)O)CCCC4(C)C2CC13 (configuration not stated)
inactive: [1] 103 % of control | [2] 97 % of control | [3] 97 % of control

Nc1ccc(C(=O)O)cc1
inactive: endpoint: mean survival time, dose: 100.0 mg/kg/injection, schedule: Q01DX001 (ip), vehicle: saline with Tween-80 95 % of control | endpoint: mean survival time, dose: 200.0 mg/kg/injection, schedule: Q01DX001 (ip), vehicle: saline with Tween-80 100 % of control | endpoint: mean survival time, dose: 400.0 mg/kg/injection, schedule: Q01DX001 (ip), vehicle: saline with Tween-80 101 % of control

Cc1cc(NCCN(C(C)C)C(C)C)nc(Nc2nc3cc(Cl)c(Cl)cc3[nH]2)n1
inactive: endpoint: mean survival time, dose: 6.25 mg/kg/injection, schedule: Q01DX009 (ip), vehicle: saline with Tween-80 100 % of control | endpoint: mean survival time, dose: 12.5 mg/kg/injection, schedule: Q01DX009 (ip), vehicle: saline with Tween-80 105 % of control | endpoint: mean survival time, dose: 25.0 mg/kg/injection, schedule: Q01DX009 (ip), vehicle: saline with Tween-80 92 % of control | [1] 87 % of control

c1ccc(N/N=C(/N=Nc2ccc(-c3ccc(N=N/C(=N/Nc4ccccc4)c4ccccc4)cc3)cc2)c2ccccc2)cc1
inactive: endpoint: mean survival time, dose: 50.0 mg/kg/injection, schedule: Q01DX009 (ip), vehicle: saline with Tween-80 97 % of control | endpoint: mean survival time, dose: 100.0 mg/kg/injection, schedule: Q01DX009 (ip), vehicle: saline with Tween-80 97 % of control | endpoint: mean survival time, dose: 200.0 mg/kg/injection, schedule: Q01DX009 (ip), vehicle: saline with Tween-80 102 % of control

CC1=NN(c2ccccc2)C(=O)CC1
inactive: [1] 101 % of control | [2] 101 % of control | [3] 103 % of control
